# Reference: patent publication US20060264460A1 (Wyeth, priority 2005, published 2006)
# Target: T1, human Cot/Tpl2 kinase (Homo sapiens, UniProt P41279)
# T1 construct: human Cot/Tpl2 kinase construct encoding residues 30-398; 6His (N); made in house; host or cells: Sf9 insect cells, baculovirus system (BD Biosciences)
# Assay: Tpl2/Cot kinase assay: GST-MEK1 phosphorylation detected by ELISA (DELFIA Eu)
# Assay type: biochemical
# Settings: 0.4 nM Tpl2, 35 nM GST-MEK1, 50 uM ATP, 1 h at 30° C.
# Summary of the method: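 His-tagged human Tpl2 from Sf9 cells, Ni-affinity and size-exclusion purified (monomer). 0.4 nM Tpl2 with 35 nM GST-MEK1, 50 uM ATP, MOPS pH 7.2, 1% DMSO, 1 h at 30° C; EDTA stop. MEK1 Ser217/221 phosphorylation detected by anti-phospho-MEK1 and Eu-labelled secondary ELISA; IC50 fitted.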
# T1 sequence (P41279 30-398): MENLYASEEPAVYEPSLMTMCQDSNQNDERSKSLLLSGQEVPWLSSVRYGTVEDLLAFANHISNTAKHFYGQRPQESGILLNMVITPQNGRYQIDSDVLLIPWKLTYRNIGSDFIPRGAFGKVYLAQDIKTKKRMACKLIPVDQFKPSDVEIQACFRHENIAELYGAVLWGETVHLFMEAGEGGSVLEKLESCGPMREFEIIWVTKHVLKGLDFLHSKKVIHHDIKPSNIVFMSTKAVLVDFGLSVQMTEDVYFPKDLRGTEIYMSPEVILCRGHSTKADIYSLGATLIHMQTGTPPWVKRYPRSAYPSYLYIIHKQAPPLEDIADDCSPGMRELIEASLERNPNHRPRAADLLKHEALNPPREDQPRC
row,Molecule,IC50 [nM]
1,"N#Cc1cnc2c(C(F)(F)F)cc(NCc3cccn3S(=O)(=O)c3ccccc3)cc2c1Nc1ccc(F)c(Cl)c1 [Example 237, 4-[(3-chloro-4-fluorophenyl)amino]-6-({[1-(phenylsulfonyl)-1H-pyrrol-2-yl]methyl}amino)-8-(trifluoromethyl)quinoline-3-carbonitrile]",24800
2,"CCNc1cc(Cl)c2ncc(C#N)c(Nc3ccc(F)c(Cl)c3)c2c1 [Example 199, 8-chloro-4-[(3-chloro-4-fluorophenyl)amino]-6-(ethylamino)quinoline-3-carbonitrile]",1400
3,"CS(=O)(=O)c1cc(NCc2cnc[nH]2)cc2c(Nc3ccc(F)c(Cl)c3)c(C#N)cnc12 [Example 286, 4-[(3-chloro-4-fluorophenyl)amino]-6-[(1H-imidazol-5-ylmethyl)amino]-8-(methylsulfonyl)quinoline-3-carbonitrile]",190
4,"N#Cc1cnc2c(Cl)cc(NCc3cccc[n+]3[O-])cc2c1Nc1ccc(F)c(Cl)c1 [Example 182, 8-chloro-4-[(3-chloro-4-fluorophenyl)amino]-6-{[(1-oxidopyridin-2-yl)methyl]amino}quinoline-3-carbonitrile]",18
5,"CN1CCCC1CCn1cc(CNc2cc(Br)c3ncc(C#N)c(Nc4ccc(F)c(Cl)c4)c3c2)nn1 (centres unmarked) [Example 305, 8-Bromo-4-(3-chloro-4-fluoro-phenylamino)-6-({1-[2-(1-methyl-pyrrolidin-2-yl)-ethyl]-1H-[1,2,3]triazol-4-ylmethyl}-amino)-quinoline-3-carbonitrile]",25
6,"COC(=O)c1nc[nH]c1CNc1cc(Br)c2ncc(C#N)c(Nc3ccc(F)c(Cl)c3)c2c1 [Example 110, Methyl 5-((8-bromo-4-(3-chloro-4-fluorophenylamino)-3-cyanoquinolin-6-ylamino)methyl)-1H-imidazole-4-carboxylate]",87
7,"CN(Cc1cn(CCC2CCCN2C)nn1)c1cc(Cl)c2ncc(C#N)c(Nc3ccc(F)c(Cl)c3)c2c1 (centres unmarked) [Example 321, 8-chloro-4-(3-chloro-4-fluorophenylamino)-6-(methyl((1-(2-(1-methylpyrrolidin-2-yl)ethyl)-1H-1,2,3-triazol-4-yl)methyl)amino)quinoline-3-carbonitrile]",490
8,"N#Cc1cnc2ccc(NCc3cccc(Br)n3)cc2c1Nc1ccc(F)c(Cl)c1 [Example 258, 6-{[(6-bromopyridin-2-yl)methyl]amino}-4-[(3-chloro-4fluorophenyl)amino]quinoline-3-carbonitrile]",270
9,"N#Cc1cnc2c(Br)cc(NCc3[nH]cnc3C(F)(F)F)cc2c1Nc1ccc(F)c(Cl)c1 [Example 114, 8-bromo-4-(3-chloro-4-fluorophenylamino)-6-((4-(trifluoromethyl)-1H-imidazol-5-yl)methylamino)quinoline-3-carbonitrile]",310
10,"N#Cc1cnc2c(Cl)cc(NCC3=NCCN3)cc2c1Nc1ccc(F)c(Cl)c1 [Example 204, 8-chloro-4-[(3-chloro-4-fluorophenyl)amino]-6-[(4,5-dihydro-1H-imidazol-2-ylmethyl)amino]quinoline-3-carbonitrile]",2600
11,1-[(3-chloro-4-fluorophenyl)amino]-5-[(1E)-3-hydroxyprop-1-en-1-yl]-7-[(1H-imidazol-5-ylmethyl)amino]-2-naphthonitrile [Example 313],230
12,"N#Cc1cnc2c(Cl)cc(NCc3cc4n(n3)CCC4)cc2c1Nc1ccc(F)c(Cl)c1 [Example 189, 8-chloro-4-(3-chloro-4-fluorophenylamino)-6-((5,6-dihydro-4H-pyrrolo[1,2-b]pyrazol-2-yl)methylamino)quinoline-3-carbonitrile]",100
13,"N#Cc1cnc2ccc(NC3CCCC3c3ccccn3)cc2c1Nc1ccc(F)c(Cl)c1 (centres unmarked) [Example 256, 4-[(3-chloro-4-fluorophenyl)amino]-6-[(2-pyridin-2-ylcyclopentyl)amino]quinoline-3-carbonitrile]",310
14,"N#Cc1cnc2c(C(F)(F)F)cc(NCc3cnc(S(=O)(=O)c4ccccc4)s3)cc2c1Nc1ccc(F)c(Cl)c1 [Example 242, 4-[(3-chloro-4-fluorophenyl)amino]-6-({[2-(phenylsulfonyl)-1,3-thiazol-5-yl]methyl}amino)-8-(trifluoromethyl)quinoline-3-carbonitrile]",> 40000
15,4-(3-Chloro-4-fluoro-phenylamino)-6-[(tetrahydro-furan-2-ylmethyl)-amino]-quinoline-3-carbonitrile [Example 41],2200
16,"Cn1cc(CNc2cc(Br)c3ncc(C#N)c(Nc4ccc(F)c(Cl)c4)c3c2)nn1 [Example 221, 8-bromo-4-(3-chloro-4-fluorophenylamino)-6-((1-methyl-1H-1,2,3-triazol-4-yl)methylamino)quinoline-3-carbonitrile]",28
17,"Cc1nc2ccc(NCc3cnc[nH]3)cc2c(Nc2ccc(F)c(Cl)c2)c1C#N [Example 254, 4-[(3-chloro-4-fluorophenyl)amino]-6-[(1H-imidazol-5-ylmethyl)amino]-2-methylquinoline-3-carbonitrile]",19900

# Same assay, conditions: Table 2; Tpl2/Cot kinase, GST-MEK1 substrate, 50 uM ATP
row,Molecule,IC50 [nM]
1,N#Cc1cnc2c(Br)cc(NCc3cncn3O)cc2c1Nc1ccc(F)c(Cl)c1 [Example 436],150
2,N#Cc1cnc2c(Cl)cc(NCc3nc[nH]n3)cc2c1Nc1ccc(F)c(Cl)c1 [Example 483],100
3,CC(C)(C)OC(=O)N1CCC(Cn2cc(CNc3cc(Br)c4ncc(C#N)c(Nc5ccc(F)c(Cl)c5)c4c3)nn2)CC1 [Example 494],170
4,N#Cc1cnc2c(Br)cc(NCc3cc(-c4ccccc4)[nH]n3)cc2c1Nc1ccc(F)c(Cl)c1 [Example 454],330
5,N#Cc1cnc2ccc(NCc3cc[nH]n3)cc2c1Nc1ccc(F)c(Cl)c1 [Example 382],74
6,CN1CCN(CCCn2cc(CNc3cc(Br)c4ncc(C#N)c(Nc5ccc(F)c(Cl)c5)c4c3)nn2)CC1 [Example 626],29
7,Fc1ccc(Nc2ncncc2-c2ccc(NCc3cnc[nH]3)cc2)cc1Cl [Example 527],> 3000
8,N#Cc1cnc2c(I)cc(NCc3cnc[nH]3)cc2c1Nc1ccc(F)c(Cl)c1 [Example 452],51
9,CC(=O)N1CCC(n2cc(CNc3cc(Br)c4ncc(C#N)c(Nc5ccc(F)c(Cl)c5)c4c3)nn2)CC1 [Example 547],6.1
10,CC(C)(C)OC(=O)N1CCCC1Cn1cc(CNc2cc(Cl)c3ncc(C#N)c(Nc4ccc(F)c(Cl)c4)c3c2)nn1 (centres unmarked) [Example 543],320
11,CC(C)(C)OC(=O)N1CCN(CCCn2cc(CNc3cc(Br)c4ncc(C#N)c(Nc5ccc(F)c(Cl)c5)c4c3)nn2)CC1 [Example 591],1300

# Same assay, conditions: Tpl2/Cot kinase, GST-MEK1 substrate, 50 uM ATP
row,Molecule,IC50 [nM]
1,N#Cc1cnc2c(Br)cc(NCc3cc(C4CCNCC4)n[nH]3)cc2c1Nc1ccc(F)c(Cl)c1 [Example 707],800
2,CC(C)(C)OC(=O)N1CCCC(Cn2cc(CNc3cc(Cl)c4ncc(C#N)c(Nc5ccc(F)c(Cl)c5)c4c3)nn2)C1 (centres unmarked) [Example 714],250
3,CC(=O)N1CCC[C@@H]1Cn1cc(CNc2cc(Cl)c3ncc(C#N)c(Nc4ccc(F)c(Cl)c4)c3c2)nn1 [Example 898],0.2
4,CN(C)CCCn1cc(CNc2cc(Br)c3ncc(C#N)c(Nc4ccc(F)c(Cl)c4)c3c2)nn1 [Example 662],20
5,N#Cc1cnc2c(Cl)cc(NCc3cn(C[C@@H]4CCCN4)nn3)cc2c1Nc1ccc(F)c(Cl)c1 [Example 890],7.6
6,N#Cc1cnc2c(Br)cc(NCc3cn(CCN4CCOCC4)cn3)cc2c1Nc1ccc(F)c(Cl)c1 [Example 669],41
7,N#Cc1cnc2c(Cl)cc(N(C=O)Cc3cn(CCCNC=O)nn3)cc2c1Nc1ccc(F)c(Cl)c1 [Example 915],170
8,N#Cc1cnc2c(Br)cc(NCc3nc[nH]n3)cc2c1Nc1ccc(F)c(Cl)c1 [Example 667],110
9,CN1CCN(CCCn2cc(CNc3cc(Cl)c4ncc(C#N)c(Nc5ccc(F)c(Cl)c5)c4c3)nn2)CC1 [Example 796],39
10,N#Cc1cnc2c(Br)cc(NCc3cn(CCCO)nn3)cc2c1Nc1ccc(F)c(Cl)c1 [Example 697],18
11,N#Cc1cnc2c(Cl)cc(C(=O)O)cc2c1Nc1ccc(F)c(Cl)c1 [Example 770],2400
12,N#Cc1cnc2c(Cl)cc(NCc3cn(CCCN4CCC(F)(F)CC4)nn3)cc2c1Nc1ccc(F)c(Cl)c1 [Example 841],29
13,COCn1cc(CNc2cc(Br)c3ncc(C#N)c(Nc4ccc(F)c(Cl)c4)c3c2)nn1 [Example 917],76
14,N#Cc1cnc2c(Cl)cc(NCC(=O)NCc3ccccn3)cc2c1Nc1ccc(F)c(Cl)c1 [Example 780],330
15,CCOC(=O)C1CC1CNc1cc(Cl)c2ncc(C#N)c(Nc3ccc(F)c(Cl)c3)c2c1 (centres unmarked) [Example 884],660
16,N#Cc1cnc2c(Cl)cc(NCc3cn(CC4CCCNC4)nn3)cc2c1Nc1ccc(F)c(Cl)c1 (centres unmarked) [Example 719],48
17,CN1CCN(C(=O)Cn2cc(CNc3cc(Cl)c4ncc(C#N)c(Nc5ccc(F)c(Cl)c5)c4c3)nn2)CC1 [Example 822],13
18,CCN(Cc1cn(CC(=O)N(C)C)nn1)c1cc(Br)c2ncc(C#N)c(Nc3ccc(F)c(Cl)c3)c2c1 [Example 835],9.1

# Same assay, conditions: Tpl2/Cot kinase, GST-MEK1 substrate, 50 uM ATP, 1 h at 30° C.; Table 2
row,Molecule,IC50 [nM]
1,CN(C)CCn1cc(CNc2cc(Cl)c3ncc(C#N)c(NC4CCC4)c3c2)nn1 [Example 956],730
2,N#Cc1cnc2c(Cl)cc(NCc3cn(CCC4CCN(C5CCC5)CC4)nn3)cc2c1Nc1ccc(F)c(Cl)c1 [Example 937],150
3,N#Cc1cnc2c(Cl)cc(NCc3cn(CCN4CCCCCC4)nn3)cc2c1NC1CCC1 [Example 955],440
4,N#Cc1cnc2c(Cl)cc(NCc3cn(C4CCCN(CC(F)(F)F)CC4)nn3)cc2c1Nc1ccc(F)c(Cl)c1 (centres unmarked) [Example 1009],270
